Experimental data reported in patent US20100317850A1 (priority 2008, published 2010).

Tested on: Aβ42 production
Assay: Quantification of Aβ peptide in culture of neurons from rat fetus brain (Aβ ELISA)
Assay type: cell-based
Conditions: Neuron, 72 h; rat primary neuronal culture (cerebral cortex, embryonic day 18 Wistar rats); medium collected three days after addition of the compound; Aβx-42 ELISA; read-out: Aβ42 production reducing effect IC50
Outline: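 Primary cortical neurons from embryonic day 18 Wistar rats were cultured 4 days, then exposed to compound in Neurobasal/B27 without 2-ME, final DMSO ≤1%. After three days, medium was collected and Aβx-42 measured undiluted by sandwich ELISA.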

Row | SMILES | IC50 [nM]
1 | NC1=N[C@@]2(c3cc(NC(=O)c4ccc(C(F)F)cn4)ccc3F)COC[C@H]2CS1 (single isomer, unassigned) [Example 190, N-[3-((4aS*,7aS*)-2-amino-4a,5-dihydro-4H-furo[3,4-d][1,3]thiazin-7a-yl)-4-fluorophenyl]-5-difluoromethylpyridine-2-carboxamide] | 12
2 | N#Cc1ccc(C(=O)Nc2ccc(F)c([C@]34CCC[C@H]3CSC(N)=N4)c2)nc1 (single isomer, unassigned) [Example 22, N-[3-((4aR*,7aS*)-2-amino-4a,5,6,7-tetrahydro-4H-cyclopenta[d][1,3]thiazin-7a-yl)-4-fluorophenyl]-5-cyanopyridine-2-carboxamide] | 5
3 | NC1=N[C@@]2(c3cc(NC(=O)c4cnc(OCF)cn4)ccc3F)CCO[C@H](CF)[C@H]2CS1 (relative stereo) [Example 144, N-[3-((4aS*,5S*,8aS*)-2-amino-5-fluoromethyl-4a,5,7,8-tetrahydro-4H-6-oxa-3-thia-1-azanaphthalen-8a-yl)-4-fluorophenyl]-5-fluoromethoxypyrazine-2-carboxamide] | 11
4 | NC1=N[C@@]2(c3cc(NC(=O)c4ccc(Br)o4)ccc3F)CCCC[C@H]2CS1 [Example 122] | 123
5 | NC1=N[C@@]2(c3cc(NC(=O)c4cnc(OC(F)F)cn4)ccc3F)CCC[C@H]2CS1 (single isomer, unassigned) [Example 20, N-[3-((4aR*,7aS*)-2-amino-4a,5,6,7-tetrahydro-4,1-cyclopenta[d][1,3]thiazin-7a-yl-4-fluorophenyl]-5-difluoromethoxypyrazine-2-carboxamide] | 5
6 | CO[C@@H]1C[C@H]2CSC(N)=N[C@@]2(c2cc(NC(=O)c3ccc(Cl)cn3)ccc2F)C1 (relative stereo) [Example 99, (+)-N-[3-((4aR*,6R*,7aS*)-2-amino-6-methoxy-4a,5,6,7-tetrahydro-4H-cyclopenta[d][1,3]thiazin-7a-yl)-4-fluorophenyl]-5-chloropyridine-2-carboxamide] | 1
7 | N#Cc1ccc(C(=O)Nc2ccc(F)c([C@]34CCCCC[C@H]3CSC(N)=N4)c2)nc1 (relative stereo) [Example 33, (+)-N-[3-((4aR*,9aS*)-2-amino-4a,5,6,7,8,9-hexahydro-4H-cyclohepta[d][1,3]thiazin-9a-yl)-4-fluorophenyl]-5-cyanopyridine-2-carboxamide] | 10
8 | CO[C@H]1CC[C@]2(c3cc(NC(=O)c4cnc(OC(F)F)cn4)ccc3F)N=C(N)SC[C@H]12 (relative stereo) [Example 64, N-[3-((4aS*,5S*,7aS*)-2-amino-5-methoxy-4a,5,6,7-tetrahydro-4H-cyclopenta[d][1,3]thiazin-7a-yl)-4-fluorophenyl]-5-difluoromethoxypyrazine-2-carboxamide] | 8
9 | C[C@H]1OC[C@]2(c3cc(NC(=O)c4ccc(OC(F)F)cn4)ccc3F)N=C(N)SC[C@H]12 (relative stereo) [Example 59, N-[3-((4aS*,5R*,7aS*)-2-amino-5-methyl-4a,5-dihydro-4H-furo[3,4-d][1,3]thiazin-7a-yl)-4-fluorophenyl]-5-difluoromethoxypyridine-2-carboxamide] | 2
10 | CC[C@H]1OC[C@]2(c3cc(NC(=O)c4ccc(C#N)cn4)ccc3F)N=C(N)SC[C@H]12 (relative stereo) [Example 49, N-[3-((4aS*,5R*,7aS*)-2-amino-5-ethyl-4a,5-dihydro-4H-furo[3,4-d][1,3]thiazin-7a-yl)-4-fluorophenyl]-5-cyanopyridine-2-carboxamide] | 0.8
11 | NC1=N[C@@]2(c3cc(NC(=O)c4ncc(F)cc4F)ccc3F)CCOC[C@H]2CS1 [Example 200] | 44
12 | NC1=N[C@@]2(c3cc(NC(=O)c4cnc(C(F)F)cn4)ccc3F)C[C@H](CF)OC[C@H]2CS1 [Example 43, N-[3-((4aS,7R,8aS)-2-amino-7-fluoromethyl-4a,5,7,8-tetrahydro-4H-6-oxa-3-thia-1-azanaphthalen-8a-yl)-4-fluorophenyl]-5-difluoromethylpyrazine-2-carboxamide] | 19
13 | NC1=N[C@@]2(c3cc(NC(=O)c4cnccn4)ccc3F)CCCC[C@H]2CS1 [Example 224] | 271
14 | COC[C@H]1OC[C@]2(c3cc(NC(=O)c4ccc(C#N)cn4)ccc3F)N=C(N)SC[C@H]12 [Example 66, N-[3-((4aS,5S,7aS)-2-amino-5-methoxymethyl-4a, 5-dihydro-4H-furo[3,4-d][1,3]thiazin-7a-yl)-4-fluorophenyl]-5-cyanopyridine-2-carboxamide] | 1.3
15 | NC1=N[C@@]2(c3cc(NC(=O)c4ccc(Br)cn4)ccc3F)CCCCC[C@H]2CS1 (single isomer, unassigned) [Example 249, N-[3-((4aR*,9aS*)-2-amino-4a,5,6,7,8,9-hexahydro-4H-cyclohepta[d][1,3]thiazin-9a-yl)-4-fluroophenyl]-5-bromopyridine-2-carboxamide] | 18
16 | C[C@H]1OC[C@H]2CSC(N)=N[C@]21c1cc(NC(=O)c2ccc(C#N)cn2)ccc1F [Example 151] | 167
17 | NC1=N[C@@]2(c3cc(NC(=O)c4ncccc4Cl)ccc3F)CCCC[C@H]2CS1 [Example 258] | 376
18 | C[C@H]1OC[C@]2(c3cc(NC(=O)c4ccncn4)ccc3F)N=C(N)SC[C@H]12 (relative stereo) [Example 60, N-[3-((4aS*,5R*,7aS*)-2-amino-5-methyl-4a,5-dihydro-4H-furo[3,4-d][1,3]thiazin-7a-yl)-4-fluorophenyl]-pyrimidine-4-carboxamide] | 12
19 | NC1=N[C@@]2(c3cc(NC(=O)c4nc5ccccc5s4)ccc3F)CCCC[C@H]2CS1 [Example 223] | 316
20 | NC1=N[C@@]2(c3cc(NC(=O)c4ccc(F)cn4)ccc3F)CCOC[C@H]2CS1 (single isomer, unassigned) [Example 187, N-[3-((4aS*,8aS*)-2-amino-4a,5,7,8-tetrahydro-4H-6-oxa-3-thia-1-azanaphthalen-8a-yl)-4-fluorophenyl]-5-fluoropyridine-2-carboxamide] | 54
21 | CO[C@H]1C[C@H]2CSC(N)=N[C@@]2(c2cc(-c3cccnc3F)ccc2F)C1 (relative stereo) [Example 243, (±)-(4aR*,6S*,7aS*)-7a-[2-Fluoro-5-(2-fluoro-pyridin-3-yl)phenyl-6-methoxy-4,4a,5,6,7,7a-hexahydrocyclopenta[d][1,3]thiazin-2-ylamine] | 69
22 | NC1=N[C@@]2(c3cc(NC(=O)c4ccc(Br)cn4)ccc3F)CCC[C@H]2CS1 (single isomer, unassigned) [Example 172, N-[3-((4aR*,7aS*)-2-amino-4a,5,6,7-tetrahydro-4H-cyclopenta[d][1,3]thiazin-7a-yl)-4-fluorophenyl]-5-bromopyridine-2-carboxamide] | 7
23 | N#Cc1ccc(C(=O)Nc2ccc(F)c([C@]34C[C@H](F)C[C@H]3CSC(N)=N4)c2)nc1 (relative stereo) [Example 91, (+)-N-[3-((4aR*,6R*,7aS*)-2-amino-6-fluoro-4a,5,6,7-tetrahydro-4H-cyclopenta[d][1,3]thiazin-7a-yl)-4-fluorophenyl]-5-cyanopyridine-2-carboxamide] | 1.4
24 | NC1=N[C@@]2(c3cc(NC(=O)c4ccc(C(F)(F)F)cn4)ccc3F)CCCCC[C@H]2CS1 (single isomer, unassigned) [Example 250, N-[3-((4aR*,9aS*)-2-amino-4a,5,6,7,8,9-hexahydro-4H-cyclohepta[d][1,3]thiazin-9a-yl)-4-fluorophenyl]-5-trifluoromethylpyridine-2-carboxamide] | 27
25 | CCO[C@@H]1C[C@H]2CSC(N)=N[C@@]2(c2cc(NC(=O)c3ccc(C#N)cn3)ccc2F)C1 (relative stereo) [Example 90, (+)-N-[3-((4aR*,6R*,7aS*)-2-amino-6-ethoxy-4a,5,6,7-tetrahydro-4H-cyclopenta[d][1,3]thiazin-7a-yl)-4-fluorophenyl]-5-cyanopyridine-2-carboxamide] | 2.5
26 | NC1=N[C@@]2(c3cc(NC(=O)c4cnc(OC(F)F)cn4)ccc3F)CCO[C@H](CF)[C@H]2CS1 (relative stereo) [Example 145, N-[3-((4aS*,5S*,8aS*)-2-amino-5-fluoromethyl-4a,5,7,8-tetrahydro-4H-6-oxa-3-thia-1-azanaphthalen-8a-yl)-4-fluorophenyl]-5-difluoromethoxypyrazine-2-carboxamide] | 3
27 | N#Cc1ccc(C(=O)Nc2ccc(F)c([C@]34C[C@@H](F)C[C@H]3CSC(N)=N4)c2)nc1 (relative stereo) [Example 110, (+)-N-[3-((4aR*,6S*,7aS*)-2-amino-6-fluoro-4a,5,6,7-tetrahydro-4H-cyclopenta[d][1,3]thiazin-7a-yl)-4-fluorophenyl]-5-cyanopyridine-2-carboxamide] | 5
28 | COC[C@H]1OC[C@]2(c3cc(NC(=O)c4cnc(OCF)cn4)ccc3F)N=C(N)SC[C@H]12 [Example 69, N-[3-((4aS,5S,7aS)-2-amino-5-methoxymethyl-4a,5-dihydro-4H-furo[3,4-d][1,3]thiazin-7a-yl)-4-fluorophenyl]-5-fluoromethoxypyrazine-2-carboxamide] | 2
29 | NC1=N[C@@]2(c3cc(NC(=O)c4cnc(OCF)cn4)ccc3F)CO[C@H](CF)[C@H]2CS1 [Example 75, N-[3-((4aS,5,7aS)-2-amino-5-fluoromethyl-4a,5-dihydro-4H-furo[3,4-d][1,3]thiazin-7a-yl)-4-fluorophenyl]-5-fluoromethoxypyrazine-2-carboxamide] | 3
30 | NC1=N[C@@]2(c3cc(NC(=O)c4ccc(OCC(F)(F)F)cn4)ccc3F)CCC[C@H]2CS1 (single isomer, unassigned) [Example 179, N-[3-((4aR*,7aS*)-2-amino-4a,5,6,7-tetrahydro-4H-cyclopenta[d][1,3]thiazin-7a-yl)-4-fluorophenyl]-5-(2,2,2-trifluoroethoxy)-pyridine-2-carboxamide] | 98
